Consider 9 compounds from article PMC11204507, “Mechanistic Insights into the Neurotoxicity of 2,5-Dimethoxyphenethylamines (2C) and Corresponding N-(2-methoxybenzyl)phenethylamine (NBOMe) Drugs” (Journal of Xenobiotics, 2024).

SMILES strings stand for the structures. pEC50: −log10 of the molar value. Where two headings read alike, the source gives them in different places.

One data set deals with TK6 cells. Further details: method as in PMID 33348640. The note with it: 1 h, cited from earlier work.
For data set [1], the system named is differentiated SH-SY5Y cells. The arrangement: method as in PMID 37631071, PMID 25900438. The note with it: same in vitro model; cited from earlier work.
The subject of data set [2] is differentiated SH-SY5Y cells. The arrangement: method as in PMID 37631071, PMID 25900438. The note with it: same in vitro model; cited from earlier work. This is another data set of the same source.
Data set [3] has as its system differentiated SH-SY5Y cells. The note with it: same experimental conditions; cited from earlier work.
For the next data set, the system named is MAO-A and MAO-B. The note with it: rat model; cited from earlier work.
The next data set concerns serotonergic B65 cells. Further details: method as in doi:10.1007/s11419-020-00527-w. The note with it: cited from earlier work.
Data set [4] deals with differentiated SH-SY5Y cells. Put plainly: Intracellular calcium levels, Fluo-4 AM probe. Type of data set: cell-based, human. The note with it: positive control, 25 mM. The procedure:
Calcium is a vital second messenger for almost every cellular process, including cellular signaling, muscle function, neurotransmitter release, membrane function, and apoptosis. Therefore, its levels inside cells are strictly controlled to maintain cellular homeostasis. The intracellular calcium levels were measured using the cell-permeable Fluo-4 AM probe. Inside the cells, Fluo-4 AM is cleaved to its active and fluorescent form—Fluo-4—which has a high affinity for calcium ions (Ca^2⁺). Thus, its fluorescence emission is directly proportional to the concentration of calcium ions in the intracellular environment.
Therefore, the SH-SY5Y cells were seeded onto 96-well plates (25,000 cells/cm^2) following the previously described seeding and differentiation protocol. […] The average value for negative control (EGTA-treated cells) was subtracted from every other condition and then the minimum average value was subtracted from the maximum average value for every other condition. The results are presented as a percentage relative to the control cells (0 µM). A minimum of 5 independent experiments were conducted in triplicate.
A general note: A change in cytosolic calcium serves as a functional read-out for many receptors and channels.

Data set [5] has as its system dopaminergic CATH.a cells and 5-HT-containing B65 cells. The arrangement: method as in doi:10.1007/s11419-020-00527-w. The conditions noted are these: 24 h exposure; read-out: EC50, LDH assay; cited from earlier work.
In data set [6] the test system is differentiated SH-SY5Y cells. Put plainly: Intracellular ROS/RNS levels, DCFH-DA probe. The note with it: positive control, 24 h. Type of data set: cell-based, human. The method, then: Reactive species play important roles in cell signaling and immune response. However, when their levels are excessive, they can cause oxidative stress and damage the cells. The intracellular reactive oxygen species (ROS) and reactive nitrogen species (RNS) levels were measured using the cell-permeable DCFH-DA probe. Inside the cells, DCFH-DA is cleaved by cellular esterases originating DCFH, which is oxidized by ROS/RNS, resulting in the fluorescent 2′,7′-dichlorofluorescein (DCF).
Therefore, the SH-SY5Y cells were seeded onto 96-well plates (25,000 cells/cm^2) following the previously described seeding and differentiation protocol. […] Tert-butyl hyoperoxide (t-BHP, 100 µM, 24 h) was used as a positive control.
At the end of the incubation period, the DCF fluorescence was measured at an excitation wavelength of 485 nm and an emission wavelength of […] in a multi-well plate reader (PowerWaveX, BioTek Instruments, Winooski, VT, USA). The detection of ROS/RNS was assessed by the percent of probe oxidation relative to the control cells (0 µM), and a minimum of 4 independent experiments were conducted in triplicate.

Regarding `COc1cc(CCN)c(OC)cc1Br` [2C-B], the “increase in ROS levels” value in the data set with TK6 cells (12.5 µM) was “two-fold”. Further, in data set [1], the tGSH content entry is recorded as “significant decrease in the tGSH content”. In data set [2], the ROS production entry is listed as “no ROS production”. Further, the “drug-induced cytotoxicity upon MAO inhibition” value in data set [3] is “significant increase in the drug-induced cytotoxicity was observed upon MAO inhibition”. Also, in the data set with MAO-A and MAO-B, the “deamination by MAO-A and MAO-B” value is “both isoenzymes can catalyze the deamination”.
Consider `COc1ccc(OC)c(CCN)c1` [2C-H], for which the “increase in ROS levels” value in the data set with TK6 cells (35 µM) is listed as “two-fold”.
`COc1cc(CCN)c(OC)cc1I` [2C-I]: the “mitochondrial production of ROS” value in the data set with serotonergic B65 cells is given as “increase in the mitochondrial production of ROS”. Also, the “increase in ROS levels” value with TK6 cells (35 µM) is “two-fold”. For the same compound, the “deamination by MAO-A and MAO-B” value in the data set with MAO-A and MAO-B was “both isoenzymes can catalyze the deamination”.
Turning to `COc1cc(CCNCc2ccccc2OC)c(OC)cc1Br` [25B-NBOMe], the “increase in ROS levels” value with TK6 cells (12.5 µM) is reported as “two-fold”. Also, the tGSH content entry in data set [1] is listed as “significant decrease in the tGSH content”. In addition, in [2], the ROS production entry is “no ROS production”.
For `[Ca+2].[Cl-].[Cl-]` [CaCl2, reference compound], the “Ca2+ intracellular levels, % of control cells” value in [4] is reported as 141.0%.
By pEC50 is commonly meant −log10 of the EC50, conventionally taken in molar units. For `CNC(C)Cc1ccc2c(c1)OCO2` (centres unmarked) [MDMA, 3,4-methylenedioxymethamphetamine], the pEC50 in data set [5] is 2.52 to 2.82.
Regarding `COc1cc(CCN)cc(OC)c1OC` [mescaline], the tGSH content result in data set [1] was “significant decrease in the tGSH content”. For the same compound, the ROS production entry in data set [2] is given as “no ROS production”. For the same compound, in [3], the “drug-induced cytotoxicity upon MAO inhibition” value is “significant increase in the drug-induced cytotoxicity was observed upon MAO inhibition”.
For `CN[C@@H](C)Cc1ccccc1` [methamphetamine], the pEC50 in data set [5] was 2.52 to 2.82.
As for `CC(C)(C)OO` [t-BHP, tert-butyl hydroperoxide], the activity at 100 µM in data set [6] (Homo sapiens, SH-SY5Y, control 100.0%) was determined as 188%. The “increase of ROS levels” value in data set [6] (100 µM) was “approximately 90%”.
